Where a SMILES comes first, the peptide text is derived from it. [ ]: non-standard residue; d: D form. The star is where a group is joined. DOTA = O=C(O)CN1CCN(CC(=O)O)CCN(CC(=O)*)CCN(CC(=O)O)CC1; 1Nal = N[C@@H](Cc1cccc2ccccc12)C(=O)O; NMeNle = CCCC[C@H](NC)C(=O)O
How the values were obtained:
[1] = Metabolic studies in BALB/c mice (intact radiopeptide by radio-HPLC); type: in vivo; settings: i.v., 2 nmol, 10 min p.i., two animals per peptide
Protocol: All animal experiments were approved by the Austrian Ministry of Science (BMWF-66.011/0075- WF/V/3b/2016) and performed in accordance with the Austrian Animal Protection Act. Metabolic studies characterizing the stability of selected radioligands against enzymatic degradation were carried out in 7 to 8 week old female BALB/c mice (Charles River, Sulzfeld, Germany). The mice (two animals for each peptide) were intravenously injected into a lateral tail vein with 5–10 MBq of the ^111In-labeled peptide derivatives, corresponding to 2 nmol total peptide. At the time point of 10 min p.i. the animals were euthanatized by cervical dislocation. A sample of urine and blood was immediately collected. Liver and kidneys were dissected, mixed with 20 mM HEPES buffer pH 7.3 (1:1, w/v) and homogenized using an Ultra-Turrax T8 homogenizer (IKA-Werke, Staufen, Germany) for 1 min. All samples taken were analyzed by analytical HPLC using the low-sensitivity loop for urine and the high-sensitivity loop for blood, liver and kidney. Before injection into the HPLC system, all samples except urine were treated with ACN and diluted with water as described for stability studies in human serum. The percentage of intact radiopeptide in the analyzed samples was calculated by integration of the different peaks found in the radiochromatogram using Chromeleon Dionex Software (Version 7.2.9.11323).

[2] = test system: A431-CCK2R and A431-mock xenografts; test: Biodistribution in BALB/c nude mice bearing A431-CCK2R/A431-mock xenografts; type: in vivo; settings: xenografted BALB/c nude mice, i.v., ~20 pmol, 4 h p.i. (indium-111 or lutetium-177), mean ± SD n = 4
Procedure, shortened: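 Female athymic BALB/c nude mice carrying subcutaneous A431-CCK2R and A431-mock tumors (~0.25 g) received ~20 pmol radiopeptide i.v. (150–200 kBq; ~0.5 MBq for gallium-68/lutetium-177 studies), n = 4. Tissues γ-counted at 1 h (gallium-68) or 4 h p.i. (indium-111/lutetium-177); expressed as % IA/g and tumor-to-organ ratios.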

CCCC[C@@H](C(=O)N[C@@H](CC(=O)O)C(=O)N[C@@H](Cc1cccc2ccccc12)C(N)=O)N(C)C(=O)[C@H](Cc1c[nH]c2ccccc12)NC(=O)CNC(=O)[C@H](Cc1ccc(O)cc1)NC(=O)[C@H](C)NC(=O)[C@@H](CCCCN)NC(=O)CN1CCN(CC(=O)O)CCN(CC(=O)O)CCN(CC(=O)O)CC1 [[^111In]In-DOTA-[DLys^1]MGS5] [metal not drawn] ({DOTA}-[dK]AYGW[NMeNle]D[1Nal]-NH2)
Intact radiopeptide in kidney ([1]; kidney homogenate): 20.6 ± 3.8%
Intact radiopeptide in liver ([1]; liver homogenate): 82.5 ± 2.4%
Intact radiopeptide in blood [1]: 93.9 ± 1.2%
Intact radiopeptide in urine [1]: 5.8 ± 0.2%
Uptake in kidneys [2]: 20.67 ± 4.37 %IA/g
